Test results taken from US20080119491A1, “AMIDINOHETEROCYCLES AS MODULATORS OF INDOLEAMINE 2,3-DIOXYGENASE” (INCYTE CORPORATION, priority 2006, published 2008).
pIC50: −log10 of the molar value.

target: T1, Human indoleamine 2,3-dioxygenasae (IDO) (Homo sapiens, UniProt P14902); assay: Human indoleamine 2,3-dioxygenase (IDO) enzyme assay; type: biochemical; settings: 95 nM IDO, 2 mM D-Trp, pH 6.5, room temperature
T1 construct: His tag (N); made in house; host or cells: E. coli
Protocol: Human indoleamine 2,3-dioxygenasae (IDO) with an N-terminal His tag was expressed in E. coli and purified to homogeneity. IDO catalyzes the oxidative cleavage of the pyrrole ring of the indole nucleus of tryptophan to yield N′-formylkynurenine. The assays were performed at room temperature as described in the literature using 95 nM IDO and 2 mM D-Trp in the presence of 20 mM ascorbate, 5 μM methylene blue and 0.2 mg/mL catalase in 50 mM potassium phosphate buffer (pH 6.5). The initial reaction rates were recorded by continuously following the absorbance increase at 321 nm due to the formation of N′-formlylkynurenine. See: Sono, M., Taniguchi, T., Watanabe, Y., and Hayaishi, O. (1980) J. Biol. Chem. 255, 1339-1345. […] The symbol “+” indicates […]. The symbol “+++” indicates IC50>[…]

T1 sequence (P14902 whole entry): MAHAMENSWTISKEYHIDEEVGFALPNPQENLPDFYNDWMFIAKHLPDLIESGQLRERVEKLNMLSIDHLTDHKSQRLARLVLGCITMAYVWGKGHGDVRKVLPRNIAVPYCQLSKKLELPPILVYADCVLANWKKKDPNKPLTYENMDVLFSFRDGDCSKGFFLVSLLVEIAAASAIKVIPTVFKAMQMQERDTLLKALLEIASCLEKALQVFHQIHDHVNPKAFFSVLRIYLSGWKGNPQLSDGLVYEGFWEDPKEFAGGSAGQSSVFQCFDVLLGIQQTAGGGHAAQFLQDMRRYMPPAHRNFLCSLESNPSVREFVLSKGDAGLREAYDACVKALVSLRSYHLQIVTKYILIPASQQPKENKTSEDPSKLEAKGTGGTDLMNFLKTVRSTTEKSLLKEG

| pIC50 | Structure (SMILES) |
| --- | --- |
| < 5.00 | Nc1nccnc1C(=NO)Nc1ccc(F)c(Cl)c1 [Example 6, 3-amino-N′-hydroxy-N-[3-chloro,4-fluorophenyl]pyrazine-2-carbox-imidamide] |
| < 5.00 | COc1ccc(CNc2nccnc2C(=NO)Nc2ccc(F)c(Cl)c2)cc1 [Example 5] |
| < 5.00 | Nc1nccnc1C(=NO)Nc1cccc(C(F)(F)F)c1 [Example 2, 3-Amino-N′-hydroxy-N-[3-(trifluoromethyl)phenyl]pyrazine-2-carboximidamide] |
| < 5.00 | ON=C(Nc1cccc(C(F)(F)F)c1)c1cccnc1 [Example 8, N′-hydroxy-N-[3-(trifluoromethyl)-phenyl]pyridine-3-carbox-imidamide] |
| < 5.00 | ON=C(Nc1ccc(F)c(Cl)c1)c1cccc(Oc2ccccc2)c1 [Example 10, N-(3-chloro-4-fluorophenyl)-N′-hydroxy-3-phenoxybenzene-carboximidamide] |
| < 5.00 | ON=C(Nc1cccc(C(F)(F)F)c1)c1cnccn1 [Example 7, N′-hydroxy-N-[3-(trifluoromethyl)-phenyl]pyrazine-2-carbox-imidamide] |
| < 5.00 | Cc1ccc(Cl)cc1CNC(=NO)c1cccnn1 [Example 13, N-(5-chloro-2-methylbenzyl)-N′-hydroxypyridazine-3-carboximidamide] |
| < 5.00 | COc1ccc(CNc2nccnc2C(=NO)Nc2cccc(C(F)(F)F)c2)cc1 [Example 1, NA-Hydroxy-3-[(4-methoxybenzyl)amino]-N-[3-(trifluoromethyl)phenyl]-pyrazine-2-carboximidamide] |
| < 5.00 | Nc1nccnc1C(=NO)Nc1ccc(F)c(C(F)(F)F)c1 [Example 4, 3-amino-N′-hydroxy-N-[3-(tri-fluoromethyl), 4-fluorophenyl]-pyrazine-2-carboximidamide] |
